Data from the supplement of paper PMC12317010.
Counter-ions that a name gives are not always drawn.

Assay: collision cross section in nitrogen (drift tube, single-field); higher = larger gas-phase ion size
[1] = ion type: [M+H], ion source: ESI, ion mode: Positive
[2] = ion type: [M-H], ion source: ESI, ion mode: Negative
[3] = ion type: [M+H], ion source: APCI, ion mode: Positive
[4] = ion source: ESI, ion mode: Positive, ion type: [M]+ (permanent cation)
[5] = ion type: [M+Na], ion source: ESI, ion mode: Positive
[6] = ion type: [M+], ion source: APCI, ion mode: Positive
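Note: chemical standards at 10 µM analysed by drift tube IMS-QTOF MS in about 3.95 torr nitrogen, mean of duplicate injections differing ≤1%, mass error below 10 ppm.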

Structure (SMILES)	collision cross section in nitrogen [1] [Å²]	collision cross section in nitrogen [2] [Å²]	collision cross section in nitrogen [3] [Å²]	collision cross section in nitrogen [5] [Å²]	also measured
Nc1ccc2cc(S(=O)(=O)O)cc(O)c2c1N=Nc1ccccc1C(F)(F)F [Acid Red 337]	191.7	195.6			
Cc1ccc(S(=O)(=O)O)cc1 [Sodium 4-methylbenzenesulfonate]		135.2			
CC(C)c1ccc2sc3ccccc3c(=O)c2c1 [2-Isopropylthioxanthone]	156.4		155.5		
O=S1(=O)OC(c2ccc(O)cc2)(c2ccc(O)cc2)c2ccccc21 [Phenol red]		182			
CCCC(Cn1cncn1)c1ccc(Cl)cc1Cl (stereo not given) [Penconazole]	166.1		166.3		
CN1C(=O)CC[C@H]1c1cccnc1 [Cotinine]	144.8				
C[N+](C)(C)CC1CO1 (stereo not given) [Glycidyl trimethylammonium chloride]					collision cross section in nitrogen [4]: 120.7 Å²
N#CC(CCc1ccc(Cl)cc1)(Cn1cncn1)c1ccccc1 (stereo not given)	183.1		183.9		
CCOC(=O)CP(=O)(OCC)OCC [Triethyl phosphonoacetate]	143.7		143.6	155	
CC(NC(C)(C)C)C(=O)c1cccc(Cl)c1 (stereo not given) [Bupropion hydrochloride]	158.6				
CCN(CC)c1ccc(C=O)c(O)c1 [4-(Diethylamino)salicylaldehyde]	143.7	147	142.6		
CCCCCCOc1ccc(N)cc1 [4-Hexyloxyaniline]	167.4		168		
COc1cc(S(=O)(=O)Nc2ccccc2)c(OC)cc1N [4-Amino-2,5-dimethoxy-N-phenylbenzenesulfonamide]		169		180.5	collision cross section in nitrogen [6]: 167.2 Å²
CCCC(=O)c1cc(O)c(O)cc1O [2',4',5'-Trihydroxybutyrophenone]		141.3			
CCCCc1ccc2c(n1)[C@@H](c1ccc(OC)cc1C[C@H](C)C(=O)O)[C@H](C(=O)O)[C@H]2c1ccc2c(c1)OCO2 [MK-547]	230.9	236.4	231	234.1	
C[N+](C)(C)CCO [Choline hydroxide]					collision cross section in nitrogen [4]: 117.7 Å²
COC(=O)Nc1nc2cc(S(=O)c3ccccc3)ccc2[nH]1 (stereo not given) [Oxfendazole]	178.2	177	179	191.4	
CC(=O)C(=NNc1ccc(-c2ccc(NN=C(C(C)=O)C(=O)Nc3ccc(C)cc3C)c(Cl)c2)cc1Cl)C(=O)Nc1ccc(C)cc1C [C.I. Pigment Yellow 13]			238.9		collision cross section in nitrogen [6]: 238.3 Å²
Cc1ccccc1C(=O)Nc1cccc(OC(C)C)c1 [Mepronil]	169.4	172.6	169.9	180.1	
CCCCCCCCCCCCCC[P+](CCCC)(CCCC)CCCC [Tributyltetradecylphosphonium chloride]					collision cross section in nitrogen (ion source: APCI, ion mode: Positive, ion type: [M]+ (permanent cation)): 224 Å²; collision cross section in nitrogen [4]: 224.5 Å²
N#Cc1cc([N+](=O)[O-])ccc1N [2-Amino-5-nitrobenzonitrile]		125.1			

Structure (SMILES)	collision cross section in nitrogen [1] [Å²]	collision cross section in nitrogen [2] [Å²]	collision cross section in nitrogen [3] [Å²]	collision cross section in nitrogen [5] [Å²]	also measured
Nc1ccc([N+](=O)[O-])cc1Cl [2-Chloro-4-nitroaniline]		126.1			
Cc1cc(=O)oc2cc(O)ccc12 [4-Methylumbelliferone hydrate]	133	133.7			
Nc1nc2nc[nH]c2c(=S)[nH]1 [6-Thioguanine]	133.4	128.9	132.4	142.3	
CNC(=C[N+](=O)[O-])NCCSCc1csc(CN(C)C)n1 [Nizatidine]	171	181.9	171.3	178.1	
CN(C)C(=O)Nc1ccccc1 [Fenuron]	134.4	137	134	144.7	
N=C(N)c1ccccc1 [Benzenecarboximidamide, monohydrochloride]	125		124.7		
CNC[C@H](O)c1cccc(O)c1 [(-)-Phenylephrine hydrochloride]		138.7			
CC1=NN(c2cc(Cl)c(S(=O)(=O)O)cc2Cl)C(=O)C1N=Nc1ccc(S(=O)(=O)O)cc1 (stereo not given) [C.I. Acid Yellow 17, disodium salt]		227.6			
O=C(O)Cn1c(=O)n(Cc2ccc(Br)cc2F)c(=O)c2ccc(Cl)cc21 [Zenarestat]		188.9			
Nc1c(Br)cc([N+](=O)[O-])cc1Br [2,6-Dibromo-4-nitroaniline]		134.9			
CCCCC(CC)CCC(CC(C)C)OS(=O)(=O)O (stereo not given) [7-Ethyl-2-methyl-4-undecanolsulfate, sodium salt]		175.2			
CCNP(=S)(OC)O/C(C)=C/C(=O)OC(C)C (stereo not given) [Propetamphos]		168.1		170.5	
CC1=CC(=O)NS(=O)(=O)O1 [Acesulfame potassium]		125.1			
O=C1OC(=O)c2c(Cl)c(Cl)c(Cl)c(Cl)c21 [Tetrachlorophthalic anhydride]		158.1			
O=C(O)c1ccc(C(=O)O)c(C(=O)O)c1 [1,2,4-Benzenetricarboxylic acid]		136.9			
O=C1OC2(c3ccccc31)c1cc(I)c(O)c(I)c1Oc1c2cc(I)c(O)c1I [C.I. Solvent Red 140]	211.3	218.2	211.8		
CC1(CO)CN(c2ccccc2)NC1=O (stereo not given) [4-(Hydroxymethyl)-4-methyl-1-phenylpyrazolidin-3-one]					collision cross section in nitrogen [6]: 143.2 Å²
Nc1ccc2cc(S(=O)(=O)O)ccc2c1 [6-Aminonaphthalene-2-sulfonic acid]		150.3			
CCCOCCOCCOCCO [2-[2-(2-Propoxyethoxy)ethoxy]ethanol]				144.4	
CCOP(=O)(OCC)Oc1nc(Cl)c(Cl)cc1Cl [Chlorpyrifos oxon]	162.7		162.3	171	
CCCCCCCC/C=C\CCCCCCCC(=O)N(C)CC(=O)O [Oleyl sarcosine]	200.6	191.2	200.7	196	

Structure (SMILES)	collision cross section in nitrogen [1] [Å²]	collision cross section in nitrogen [2] [Å²]	collision cross section in nitrogen [3] [Å²]	collision cross section in nitrogen [5] [Å²]	also measured
O=C(Oc1ccccc1)c1ccccc1C(=O)Oc1ccccc1 [Diphenyl phthalate]				181.1	
N#C[C@@H]1CC(F)(F)CN1C(=O)CNC1CC2CCC(C1)N2c1ncccn1 (stereo not given in full)	176.9		176.9	182.7	
O=[N+]([O-])c1cc(N(CCO)CCO)ccc1NCCO [HC Blue 2]	171.1		171.3	177.5	
Cc1ccc(N(SC(F)(Cl)Cl)S(=O)(=O)N(C)C)cc1 [Tolylfluanid]				177.6	
CCOC(=O)n1ccn(C)c1=S [Carbimazole]				148	
Cc1cnc(C2=NC(=O)C(C)(C(C)C)N2)c(C(=O)O)c1 (stereo not given) [Imazapic]	162.4	168.3	162.2	178.8	
COc1ccc([C@@H]2Sc3ccccc3N(CCN(C)C)C(=O)[C@@H]2OC(C)=O)cc1 [Diltiazem hydrochloride]	197.8			203.2	
COc1cc(C(=O)NC2CCN(C)CC2)ccc1Nc1ncc2c(n1)N(C1CCCC1)CC(F)(F)C(=O)N2C [Ro 3280]	250.7	236.7	250.9	262.3	
Cc1ccc2oc(CN(Cc3ccccc3)C(=O)Nc3c(F)cc(F)cc3F)c(-c3ccc(Cl)cc3)c2c1		225.2		226.8	
COC(=O)C(C)N(C(=O)c1ccco1)c1c(C)cccc1C (stereo not given) [Furalaxyl]	161.4		162.1	178	
Cc1ccc(C(C)C)cc1O [Isopropyl-o-cresol]		136.9			
O=C(O)[C@H](O)[C@@H](O)[C@H](O)[C@H](O)CO [D-Gluconic acid]		133.2			
CN(C)C(=N)NC(=N)N [Metformin]	125.7		125.1		
CNCc1cc(F)ccc1Oc1ccc(Cl)c(Cl)c1	173.4				
O=C(O)C1=NN(c2ccc(S(=O)(=O)O)cc2)C(=O)C1		162.5			
Nc1cccc(S(=O)(=O)c2cccc(N)c2)c1 [3,3'-Sulphonyldianiline]				172.6	
CN1C(=O)CCS(=O)(=O)C1c1ccc(Cl)cc1 (stereo not given) [Chlormezanone]		154.1			
CCCC(=NOCC)C1=C(O)CC(CC(C)SCC)CC1=O (stereo not given) [Sethoxydim]	181	178.5	181.6		
CCNc1nc(NC(C)(C)C)nc(OC)n1 [Terbumeton]	154.9		154.8	172.2	
C=CCS(=O)(=O)O [2-Propene-1-sulfonic acid, sodium salt]		119.1			
Cc1cccc(Nc2ccccc2)c1 [3-Methyl-N-phenylaniline]	143.6		143.2		collision cross section in nitrogen [6]: 139.3 Å²
